Species: Rattus norvegicus
Experiment: Open TG-GATES - Regimen: Single
Assay type: toxicity, organism-based, Sprague-Dawley
Set-up: regimen Single, gender Male, age 6 weeks
Details: in vivo, po, 300 mg/kg, route gavage, dose level High; for APTT / Bas / Eos / Fbg / Hb / Ht / Lym / MCH / MCHC / MCV / Mono / Neu / PT / Plat / RBC / Ret / WBC: tissue Blood; for KIDNEY_L / KIDNEY_R / KIDNEY_TOTAL: tissue Kidney; for LIVER: tissue Liver; for A/G / ALP / ALT / AST / BUN / CRE / Ca / Cl / DBIL / GLC / IP / K / LDH / Na / PL / RALB / TBIL / TC / TG / TP / gamma-GTP: tissue Plasma

SMILES: NC(=O)N/N=C/c1ccc([N+](=O)[O-])o1 [NITROFURAZONE]
- TERMINAL_BW (3 h): 181.2 g
- APTT (3 h): 16.7 s
- Bas (3 h): 0%
- Eos (3 h): 0.6%
- Fbg (3 h): 230.6 mg/dL
- Hb (3 h): 12.3 g/dL
- Ht (3 h): 38.2%
- Lym (3 h): 70.4%
- MCH (3 h): 21.7 pg
- MCHC (3 h): 32.3%
- MCV (3 h): 67 fL
- Mono (3 h): 4.6%
- Neu (3 h): 23.6%
- PT (3 h): 14.9 s
- Plat (3 h): 114.6 x10_4/uL
- RBC (3 h): 569.8 x10_4/ul
- Ret (3 h): 10.8%
- WBC (3 h): 73.1 x10_2/uL
- KIDNEY_L (3 h): 0.8 g
- KIDNEY_R (3 h): 0.8 g
- KIDNEY_TOTAL (3 h): 1.6 g
- LIVER (3 h): 7.5 g
- A/G (3 h): 0.9
- ALP (3 h): 1634 IU/L
- ALT (3 h): 47 IU/L
- AST (3 h): 81.6 IU/L
- BUN (3 h): 11.8 mg/dL
- CRE (3 h): 0.2 mg/dL
- Ca (3 h): 11.1 mg/dL
- Cl (3 h): 105.2 meq/L
- DBIL (3 h): 0.002 mg/dL
- GLC (3 h): 181.6 mg/dL
- IP (3 h): 8.9 mg/dL
- K (3 h): 3.9 meq/L
- LDH (3 h): 47.8 IU/L
- Na (3 h): 142 meq/L
- PL (3 h): 135.8 mg/dL
- RALB (3 h): 2.4 g/dL
- TBIL (3 h): 0.056 mg/dL
- TC (3 h): 78 mg/dL
- TG (3 h): 29.4 mg/dL
- TP (3 h): 5.2 g/dL
- gamma-GTP (3 h): 1.6 IU/L
- TERMINAL_BW (6 h): 181.5 g
- APTT (6 h): 15.7 s
- Bas (6 h): 0%
- Eos (6 h): 1%
- Fbg (6 h): 265 mg/dL
- Hb (6 h): 12.7 g/dL
- Ht (6 h): 39.5%
- Lym (6 h): 71.2%
- MCH (6 h): 21.5 pg
- MCHC (6 h): 32.1%
- MCV (6 h): 67 fL
- Mono (6 h): 4%
- Neu (6 h): 23.4%
- PT (6 h): 14.6 s
- Plat (6 h): 115.7 x10_4/uL
- RBC (6 h): 589.4 x10_4/ul
- Ret (6 h): 10.7%
- WBC (6 h): 70.2 x10_2/uL
- KIDNEY_L (6 h): 0.8 g
- KIDNEY_R (6 h): 0.8 g
- KIDNEY_TOTAL (6 h): 1.6 g
- LIVER (6 h): 7.6 g
- A/G (6 h): 0.9
- ALP (6 h): 1281.4 IU/L
- ALT (6 h): 44 IU/L
- AST (6 h): 77 IU/L
- BUN (6 h): 9.2 mg/dL
- CRE (6 h): 0.2 mg/dL
- Ca (6 h): 11 mg/dL
- Cl (6 h): 105.4 meq/L
- DBIL (6 h): 0.006 mg/dL
- GLC (6 h): 171 mg/dL
- IP (6 h): 9 mg/dL
- K (6 h): 3.7 meq/L
- LDH (6 h): 47.6 IU/L
- Na (6 h): 142.2 meq/L
- PL (6 h): 149 mg/dL
- RALB (6 h): 2.5 g/dL
- TBIL (6 h): 0.066 mg/dL
- TC (6 h): 84.4 mg/dL
- TG (6 h): 24.4 mg/dL
- TP (6 h): 5.4 g/dL
- gamma-GTP (6 h): 1.4 IU/L
- TERMINAL_BW (9 h): 181 g
- APTT (9 h): 15.4 s
- Bas (9 h): 0%
- Eos (9 h): 1%
- Fbg (9 h): 282.4 mg/dL
- Hb (9 h): 12.4 g/dL
- Ht (9 h): 38.2%
- Lym (9 h): 64.4%
- MCH (9 h): 21.8 pg
- MCHC (9 h): 32.3%
- MCV (9 h): 67.4 fL
- Mono (9 h): 3%
- Neu (9 h): 30.4%
- PT (9 h): 14.5 s
- Plat (9 h): 120.7 x10_4/uL
- RBC (9 h): 567.2 x10_4/ul
- Ret (9 h): 10.7%
- WBC (9 h): 63.1 x10_2/uL
- KIDNEY_L (9 h): 0.8 g
- KIDNEY_R (9 h): 0.8 g
- KIDNEY_TOTAL (9 h): 1.7 g
- LIVER (9 h): 7.5 g
- A/G (9 h): 0.9
- ALP (9 h): 1242 IU/L
- ALT (9 h): 39.2 IU/L
- AST (9 h): 79 IU/L
- BUN (9 h): 10.4 mg/dL
- CRE (9 h): 0.1 mg/dL
- Ca (9 h): 10.8 mg/dL
- Cl (9 h): 103.8 meq/L
- DBIL (9 h): 0.006 mg/dL
- GLC (9 h): 196 mg/dL
- IP (9 h): 10.6 mg/dL
- K (9 h): 3.6 meq/L
- LDH (9 h): 69 IU/L
- Na (9 h): 141 meq/L
- PL (9 h): 135.2 mg/dL
- RALB (9 h): 2.4 g/dL
- TBIL (9 h): 0.062 mg/dL
- TC (9 h): 78.8 mg/dL
- TG (9 h): 23.2 mg/dL
- TP (9 h): 5.2 g/dL
- gamma-GTP (9 h): 1.4 IU/L
- TERMINAL_BW (24 h): 167.8 g
- APTT (24 h): 16.1 s
- Bas (24 h): 0%
- Eos (24 h): 0.5%
- Fbg (24 h): 368.8 mg/dL
- Hb (24 h): 14.1 g/dL
- Ht (24 h): 42.9%
- Lym (24 h): 69%
- MCH (24 h): 21.6 pg
- MCHC (24 h): 32.6%
- MCV (24 h): 66 fL
- Mono (24 h): 3.2%
- Neu (24 h): 26.5%
- PT (24 h): 15.8 s
- Plat (24 h): 112.2 x10_4/uL
- RBC (24 h): 651.8 x10_4/ul
- Ret (24 h): 8.6%
- WBC (24 h): 68.9 x10_2/uL
- KIDNEY_L (24 h): 0.8 g
- KIDNEY_R (24 h): 0.8 g
- KIDNEY_TOTAL (24 h): 1.6 g
- LIVER (24 h): 7 g
- A/G (24 h): 0.9
- ALP (24 h): 1162.2 IU/L
- ALT (24 h): 186 IU/L
- AST (24 h): 88 IU/L
- BUN (24 h): 15 mg/dL
- CRE (24 h): 0.2 mg/dL
- Ca (24 h): 10.6 mg/dL
- Cl (24 h): 105.8 meq/L
- DBIL (24 h): 0.0125 mg/dL
- GLC (24 h): 174.8 mg/dL
- IP (24 h): 9.7 mg/dL
- K (24 h): 3.4 meq/L
- LDH (24 h): 78.8 IU/L
- Na (24 h): 142.8 meq/L
- PL (24 h): 131.2 mg/dL
- RALB (24 h): 2.4 g/dL
- TBIL (24 h): 0.0825 mg/dL
- TC (24 h): 83.8 mg/dL
- TG (24 h): 39.8 mg/dL
- TP (24 h): 5.3 g/dL
- gamma-GTP (24 h): 0.8 IU/L
